The assay has as its target MsmK (Streptococcus suis, UniProt A0A0H3N1P0). To be noted: 1 mM ATP, 10 mM MgCl2, 200 mM KCl, 50 mM PIPES/NaOH pH 6.8, 1 mM β-mercaptoethanol, 30°C, 1 h; labelled compound.

SMILES strings stand for the structures.

Sequence of MsmK (A0A0H3N1P0 entry or part of it): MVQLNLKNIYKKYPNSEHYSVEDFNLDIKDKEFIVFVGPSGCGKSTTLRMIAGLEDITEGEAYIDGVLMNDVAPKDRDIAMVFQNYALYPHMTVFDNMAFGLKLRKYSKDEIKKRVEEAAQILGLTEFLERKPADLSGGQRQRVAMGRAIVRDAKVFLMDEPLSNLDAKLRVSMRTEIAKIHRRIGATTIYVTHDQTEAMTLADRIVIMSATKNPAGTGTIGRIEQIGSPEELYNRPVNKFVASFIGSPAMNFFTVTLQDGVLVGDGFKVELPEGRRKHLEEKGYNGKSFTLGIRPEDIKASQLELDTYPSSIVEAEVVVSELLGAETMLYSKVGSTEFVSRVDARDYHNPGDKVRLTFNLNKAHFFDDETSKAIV

With `Nc1ncnc2c1ncn2[C@@H]1O[C@H](COP(=O)(O)OP(=O)(O)OP(=O)(O)O)[C@@H](O)[C@H]1O` [ATP], the “radiometric TLC of ADP formed from [α-32P]-ATP” value was “ATPase assays showed that the recombinant protein could hydrolyze ATP to ADP”.

The record behind these values is publication PMC4519317, “MsmK, an ATPase, Contributes to Utilization of Multiple Carbohydrates and Host Colonization of Streptococcus suis” (PLoS ONE, 2015).
